ChEMBL document CHEMBL3727357, “Compositions and methods for inhibiting g protein signaling” (2010)
Values belong to the compound of their own block, whether it stands above or below them. Calls of active or inactive are those of the source. The rule behind the calls is not given here.

What was measured:
[1] = target: T1, Guanine nucleotide-binding protein G(I)/G(S)/G(T) subunit beta-1/gamma-2 (Homo sapiens, UniProt P62873+P59768); assay: Inhibition of biotinylated Gbeta1gamma2 (unknown origin)-mediated PLCbeta3 activation incubated for 16 hrs; format: protein-complex assay
Target sequence in this assay (P59768 2-71 limits assumed): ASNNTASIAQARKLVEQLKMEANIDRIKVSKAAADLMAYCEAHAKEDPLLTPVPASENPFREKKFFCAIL
Target sequence in this assay (P62873 2-340 limits assumed): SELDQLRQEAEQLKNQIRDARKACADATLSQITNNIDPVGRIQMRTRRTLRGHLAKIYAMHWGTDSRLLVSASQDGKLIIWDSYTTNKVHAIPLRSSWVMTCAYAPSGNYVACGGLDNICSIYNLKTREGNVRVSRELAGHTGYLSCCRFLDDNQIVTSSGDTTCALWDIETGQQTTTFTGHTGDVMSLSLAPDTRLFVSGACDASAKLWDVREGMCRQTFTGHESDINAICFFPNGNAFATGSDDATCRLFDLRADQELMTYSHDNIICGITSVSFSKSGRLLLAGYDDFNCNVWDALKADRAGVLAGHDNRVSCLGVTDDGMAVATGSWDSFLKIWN

Mus musculus [2] = species on record: Mus musculus; assay: Inhibition of Gbetagamma-GRK2 interaction in mouse cardiomyocytes assessed as increase in contractility; format: cell-based
Mus musculus [3] = assay: Inhibition of isoproterenol-mediated decrease in cardiac function in C57/B16 mouse acute model of heart failure at 100 mg/kg, ip qd administered for 7 days by conscious echocardiography; format: functional, organism-based
Mus musculus [4] = assay: Increase in survival of cardiac-specific calsequestrin mouse with dilated cardiomyopathy at 100 mg/kg, ip qd; format: functional, organism-based; details: Heart
Mus musculus [5] = assay: Inhibition of isoproterenol-mediated decrease in cardiac morphology in C57/B16 mouse acute model of heart failure at 100 mg/kg, ip qd administered for 7 days by post-mortem test; format: functional, organism-based
Mus musculus [6] = assay: Toxicity in C57/B16 mouse assessed as effect on cardiac morphology at 100 mg/kg, ip qd administered for 7 days by post-mortem test; format: organism-based; details: in vivo, 168 h
[7] = Effect on differentiated human HL60 cell motility at 10 uM after 1 hr by Boyden chamber method; format: ADME, cell-based; details: hl-60, 1 h
Mus musculus [8] = assay: Inhibition of isoproterenol-mediated interstitial cardiac fibrosis in C57/B16 mouse acute model of heart failure at 100 mg/kg, ip qd administered for 7 days by post-mortem test; format: functional, organism-based
Mus musculus [9] = species on record: Mus musculus; assay: Inhibition of Gbetagamma-mediated GRK2 recruitment in mouse cardiomyocytes assessed as cAMP generation at 10 uM treated for 5 mins; format: functional, cell-based
HL-60 [10] = assay: Antiinflammatory activity in differentiated human HL60 cells assessed as inhibition of fMLP-stimulated cell migration at 10 uM after 1 hr by Boyden chamber method; format: functional, cell-based
HL-60 [11] = assay: Binding affinity to Gbetagamma in human HL60 cells assessed as inhibition of fMLP-stimulated GFP-PHAkt translocation to plasma membrane at 10 uM incubated for 5 mins prior to fMLP stimulation by Western blot analysis; format: cell-based
HL-60 [12] = assay: Binding affinity to Gbetagamma in human HL60 cells assessed as inhibition of fMLP-stimulated Ca2+ release at 10 uM incubated for 5 mins prior to fMLP stimulation by Fura2-AM dye-based assay; format: cell-based
HL-60 [13] = assay: Binding affinity to Gbetagamma in differentiated human HL60 cells assessed as inhibition of fMLP-stimulated Rac1 activation at 10 uM preincubated for 10 mins followed by fMLP challenge for 90 secs by Western blot analysis; format: cell-based
Neutrophil [14] = assay: Antiinflammatory activity in primary human neutrophils assessed as inhibition of GM-CSF-stimulated chemotaxis at 1 uM after 1 hr by Boyden chamber method; format: functional, cell-based
[15] = Reduction of membrane associated GRK2 level in mouse cardiomyocytes; format: ADME, cell-based; details: cardiomyocyte
Mus musculus [16] = assay: Potentiation of morphine-induced antinociceptive activity in ICR mouse assessed as morphine ED50 at 100 mg/kg, ip after 20 mins by tail flick test (reference value: 5 mg/kg); format: functional
Mus musculus [17] = assay: Improvement of cardiac dysfunction in cardiac-specific calsequestrin mouse with dilated cardiomyopathy at 100 mg/kg, ip qd in presence of beta adrenergic receptor blocker metoprolol; format: functional, organism-based; details: Heart
HL-60 [18] = assay: Antiinflammatory activity in differentiated human HL60 cells assessed as inhibition of fMLP-stimulated chemotaxis by transwell assay; format: functional, cell-based
Mus musculus [19] = species on record: Mus musculus; assay: Inhibition of Gbetagamma in mouse cardiomyocytes assessed as reduction of agonist-stimulated beta adrenergic receptor-mediated GRK2 recruitment to membrane; format: cell-based
CHO [20] = assay: Effect on total inositol phosphate production in CHO cells expressing human mu opioid receptor at 10 uM after 30 mins by scintillation counting analysis in presence of [3H]inositol; format: ADME, cell-based, Cricetulus griseus; details: chinese hamster, 0.5 h
Mus musculus [21] = species on record: Mus musculus; assay: Inhibition of Gbetagamma-GRK2 interaction in mouse cardiomyocytes assessed as increase in contractility in presence of beta adrenergic receptor antagonist propranolol; format: cell-based
CHO [22] = assay: Reduction of U50,488-mediated total inositol phosphate production in CHO cells expressing human mu opioid receptor at 10 uM after 30 mins by scintillation counting analysis in presence of [3H]inositol; format: functional, cell-based; details: Cricetulus griseus
HEK293 = assay: Effect on carbachol-dependent Ca2+ release in HEK293 cells expressing M3 muscarinic receptor at 10 uM; format: functional, cell-based; details: Homo sapiens
[23] = target: Delta-type opioid receptor (Homo sapiens) (UniProt P41143); assay: Inhibition of human Gbetagamma-dependent delta opioid receptor-mediated PLC activation expressed in CHO cells assessed as reduction of Deltorphin 2-mediated total inositol phosphate production at 10 uM after 30 mins by scintillation counting analysis in presence of [3H]inositol; format: functional, cell-based
Sequence of Delta-type opioid receptor (Homo sapiens) (P41143 whole entry): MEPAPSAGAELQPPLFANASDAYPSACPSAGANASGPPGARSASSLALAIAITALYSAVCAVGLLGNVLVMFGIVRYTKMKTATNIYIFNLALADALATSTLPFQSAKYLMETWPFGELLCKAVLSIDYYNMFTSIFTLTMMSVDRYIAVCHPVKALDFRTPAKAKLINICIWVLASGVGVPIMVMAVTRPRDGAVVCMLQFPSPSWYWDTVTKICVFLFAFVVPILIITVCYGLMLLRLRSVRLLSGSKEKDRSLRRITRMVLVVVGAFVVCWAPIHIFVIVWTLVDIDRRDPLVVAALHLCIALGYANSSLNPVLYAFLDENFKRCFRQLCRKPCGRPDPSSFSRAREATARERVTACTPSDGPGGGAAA

Mus musculus [24] = assay: Improvement of cardiac dysfunction in cardiac-specific calsequestrin mouse with dilated cardiomyopathy at 100 mg/kg, ip qd; format: functional, organism-based; details: Heart
CHO [25] = assay: Reduction of DPDPE-mediated total inositol phosphate production in CHO cells expressing human mu opioid receptor at 10 uM after 30 mins by scintillation counting analysis in presence of [3H]inositol; format: functional, cell-based; details: Cricetulus griseus
[26] = target: Mu-type opioid receptor (Homo sapiens) (UniProt P35372); assay: Inhibition of human Gbetagamma-dependent mu opioid receptor-mediated PLC activation expressed in CHO cells assessed as reduction of DAMGO-mediated total inositol phosphate production at 10 uM after 30 mins by scintillation counting analysis in presence of [3H]inositol; format: functional, cell-based
Sequence of Mu-type opioid receptor (Homo sapiens) (P35372 whole entry): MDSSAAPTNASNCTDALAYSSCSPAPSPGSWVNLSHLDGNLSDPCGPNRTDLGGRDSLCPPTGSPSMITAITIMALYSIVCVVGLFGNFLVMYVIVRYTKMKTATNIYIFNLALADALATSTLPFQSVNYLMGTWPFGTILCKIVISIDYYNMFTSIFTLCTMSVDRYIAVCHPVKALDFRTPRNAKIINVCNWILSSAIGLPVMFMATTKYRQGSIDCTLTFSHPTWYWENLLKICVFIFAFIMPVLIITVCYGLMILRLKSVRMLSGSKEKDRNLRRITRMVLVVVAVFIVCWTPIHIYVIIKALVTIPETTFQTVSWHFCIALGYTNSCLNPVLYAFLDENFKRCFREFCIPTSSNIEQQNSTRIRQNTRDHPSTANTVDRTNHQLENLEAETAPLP

CHO [27] = assay: Inhibition of human Gbetagamma-dependent kappa opioid receptor-mediated PLC activation expressed in CHO cells assessed as reduction of U50,488-mediated total inositol phosphate production at 10 uM after 30 mins by scintillation counting analysis in presence of [3H]inositol; format: cell-based
[28] = target: Mu-type opioid receptor (Homo sapiens) (UniProt P35372); assay: Inhibition of human Gbetagamma-dependent mu opioid receptor-mediated PLC activation expressed in CHO cells assessed as reduction of morphine-mediated total inositol phosphate production at 10 uM after 30 mins by scintillation counting analysis in presence of [3H]inositol; format: functional, cell-based
[29] = target: T1, Guanine nucleotide-binding protein G(I)/G(S)/G(T) subunit beta-1/gamma-2; assay: Inhibition of biotinylated Gbeta1gamma2 (unknown origin) binding to PLCbeta3 at 10 uM incubated for 16 hrs; format: protein-complex assay
Target sequence in this assay (P59768 2-71 partner limits assumed): as the sequence (P59768 2-71 limits assumed) above
Target sequence in this assay (P62873 2-340 limits assumed): as the sequence (P62873 2-340 limits assumed) above

Mus musculus [30] = species on record: Mus musculus; assay: Inhibition of Gbetagamma-GRK2 interaction in mouse cardiomyocytes assessed as increase in isoproterenol-induced contractility in presence of beta adrenergic receptor antagonist propranolol; format: cell-based
[31] = target: T1, Guanine nucleotide-binding protein G(I)/G(S)/G(T) subunit beta-1/gamma-2; assay: Inhibition of biotinylated Gbeta1gamma2 (unknown origin) binding to PLCbeta2 at 10 uM incubated for 16 hrs; format: protein-complex assay
Target sequence in this assay (P59768 2-71 partner limits assumed): as the sequence (P59768 2-71 limits assumed) above
Target sequence in this assay (P62873 2-340 limits assumed): as the sequence (P62873 2-340 limits assumed) above

Mus musculus [32] = assay: Toxicity in C57/B16 mouse assessed as overt toxic effect at 250 mg/kg/day administered for 2 weeks; format: organism-based; details: in vivo, 336 h
Mus musculus [33] = species on record: Mus musculus; assay: Inhibition of Gbetagamma-mediated GRK2 recruitment in mouse cardiomyocytes assessed as isoproterenol-induced cAMP generation at 10 uM pretreated for 5 mins followed by isoproterenol induction measured after 15 mins; format: functional, cell-based
Neutrophil [34] = assay: Antiinflammatory activity in primary human neutrophils assessed as inhibition of fMLP-stimulated chemotaxis at 10 uM after 1 hr by Boyden chamber method; format: functional, cell-based
HL-60 [35] = assay: Effect on fMLP-stimulated ERK1/2 phosphorylation in human HL60 cells at 10 uM incubated for 5 mins prior to fMLP stimulation by Western blot analysis; format: functional, cell-based
Mus musculus [36] = species on record: Mus musculus; assay: Inhibition of Gbetagamma-GRK2 interaction in mouse cardiomyocytes assessed as increase in isoproterenol-induced contractility; format: cell-based
Mus musculus [37] = assay: Antinociceptive activity in ICR mouse at 100 nmol, icv after 20 mins by tail flick test relative to control; format: functional, organism-based
Mus musculus [38] = assay: Toxicity in C57/B16 mouse assessed as effect on cardiac function at 100 mg/kg, ip qd administered for 7 days by conscious echocardiography; format: organism-based; details: in vivo, 168 h
Mus musculus [39] = assay: Increase in survival of cardiac-specific calsequestrin mouse with dilated cardiomyopathy at 100 mg/kg, ip qd in presence of beta adrenergic receptor blocker metoprolol; format: functional, organism-based; details: Heart
[40] = target: Delta-type opioid receptor (Homo sapiens) (UniProt P41143); assay: Inhibition of human Gbetagamma-dependent delta opioid receptor-mediated PLC activation expressed in CHO cells assessed as reduction of DPDPE-mediated total inositol phosphate production at 10 uM after 30 mins by scintillation counting analysis in presence of [3H]inositol; format: functional, cell-based
Neutrophil [41] = assay: Antiinflammatory activity in primary human neutrophils assessed as inhibition of IL8-stimulated chemotaxis at 10 uM after 1 hr by Boyden chamber method; format: functional, cell-based
HL-60 [42] = assay: Binding affinity to Gbetagamma in human HL60 cells assessed as inhibition of fMLP-stimulated GRK2 translocation at 10 uM incubated for 5 mins prior to fMLP stimulation by Western blot analysis; format: cell-based
Mus musculus [43] = assay: Downregulation of GRK2 expression in […] mouse acute model of heart failure at 100 mg/kg, ip qd administered for 7 days by immunoblot analysis; format: functional, organism-based
HL-60 [44] = assay: Binding affinity to Gbetagamma in differentiated human HL60 cells assessed as inhibition of fMLP-stimulated superoxide production at 10 uM preincubated for 10 mins followed by nitro blue tetrazolium addition for 5 mins and fMLP addition for 30 mins by NADPH oxidase assay; format: cell-based
Mus musculus [45] = assay: Potentiation of morphine-induced antinociceptive activity in PLCbeta3-deficient ICR mouse at 100 nmol, icv after 20 mins by tail flick test; format: functional, organism-based
Mus musculus [46] = assay: Antiinflammatory activity in Swiss-Webster mouse carrageenan-induced paw edema model assessed as inhibition of neutrophils recruitment in edematous fluid at 2.5 mg/kg, ip administered 1 hr followed by carrageenan challenge; format: functional, organism-based
Mus musculus [47] = assay: Antiinflammatory activity in Swiss-Webster mouse assessed as inhibition of carrageenan-induced paw edema at 2.5 mg/kg, ip administered 1 hr followed by carrageenan challenge measured 3 times every 2 hrs; format: functional, organism-based
Mus musculus [48] = assay: Antiinflammatory activity in Swiss-Webster mouse carrageenan-induced paw edema model assessed as reduction of paw exudate volume at 2.5 mg/kg, ip administered 1 hr followed by carrageenan challenge; format: functional, organism-based

SMILES: O=C1c2ccccc2C(=O)c2c(Nc3cc4c5c(ccc6c7ccc8c9c(cc(Nc%10cccc%11c%10C(=O)c%10ccccc%10C%11=O)c(c3c56)c97)-c3ccccc3C8=O)C(=O)c3ccccc3-4)cccc21
- IC50 [1]: Not Active

- inhibition (Mus musculus [19]): Active
- inhibition (Mus musculus [21]): inactive
- inhibition [23]: inactive
- inhibition [26]: Active
- inhibition [28]: Active
- inhibition [29]: Active
- inhibition (Mus musculus [30]): inactive
- inhibition [31]: Active
- inhibition [40]: inactive
SMILES: O=C(O)C1CCCCC1c1c2ccc(=O)c(O)c-2oc2c(O)c(O)ccc12 (configuration not stated)
- inhibition (Mus musculus [2]): Active
- inhibition (Mus musculus [3]): Active
- Activity (Mus musculus [4]): Active
- inhibition (Mus musculus [5]): Active
- Activity (Mus musculus [6]): Non-toxic
- Activity [7]: Non-toxic
- inhibition (Mus musculus [8]): Active
- inhibition (Mus musculus [9]): Active
- inhibition (HL-60 [10]): Active
- inhibition (HL-60 [11]): Active
- inhibition (HL-60 [12]): Active
- inhibition (HL-60 [13]): Active
- inhibition (Neutrophil [14]): inactive
- Activity [15]: Non-toxic
- ED50 (Mus musculus [16]): 1.3 mg/kg
- Activity (Mus musculus [17]): Active
- inhibition (HL-60 [18]): inactive
- Activity (CHO [20]): Non-toxic
- Activity (CHO [22]): inactive
- Activity (HEK293): inactive
- Activity (Mus musculus [24]): Active
- Activity (CHO [25]): inactive
- inhibition (CHO [27]): inactive
- Activity (Mus musculus [32]): Non-toxic
- inhibition (Mus musculus [33]): Active
- inhibition (Neutrophil [34]): Active
- Activity (HL-60 [35]): inactive
- inhibition (Mus musculus [36]): Active
- Activity (Mus musculus [37]): inactive
- Activity (Mus musculus [38]): Non-toxic
- Activity (Mus musculus [39]): Active
- inhibition (Neutrophil [41]): Active
- inhibition (HL-60 [42]): Active
- Activity (Mus musculus [43]): Active
- inhibition (HL-60 [44]): Active
- Activity (Mus musculus [45]): inactive

SMILES: O=C(O)C1CC23C(Cl)C(Cl)C(Cl)C(Cl)C2(CC1c1c2ccc(=O)c(O)c-2oc2c(O)c(O)ccc12)C3(Cl)Cl (configuration not stated)
- inhibition (HL-60 [11]): Active
- inhibition (HL-60 [12]): Active
- Activity (HL-60 [35]): inactive

SMILES: COc1ccc2c(c1)c(CC(=O)O)c(C)n2C(=O)c1ccc(Cl)cc1
- inhibition (Mus musculus [46]): Active
- inhibition (Mus musculus [47]): Active
- Activity (Mus musculus [48]): Active
